Test results: PMC9542104, “Druggability Evaluation of the Neuron Derived Orphan Receptor (NOR‐1) Reveals Inverse NOR‐1 Agonists” (Chemmedchem, 2022)
Read-outs that look alike come from different tables or passages of the source.

Columns and labels:
NOR‐1 = settings: cited from earlier work
[1] = target: T1, Gal4‐NOR‐1 (human NOR‐1 LBD) (Homo sapiens, UniProt Q92570); assay: Gal4 hybrid reporter gene assay for NOR‐1 activity in HEK293T cells; format: cell-based; settings: for type of NOR‐1 modulation: Gal4‐NOR‐1; for IC50: read-out: IC50 (NOR‐1), inverse agonism; for remaining NOR‐1 activity: Gal4‐NOR‐1, remaining activity at maximum inverse agonist effect; for activity on NOR‐1 / NOR‐1 activity: Gal4‐NOR‐1, 100 μM
T1 construct: coding for the hinge region and LBD of the canonical isoform of NOR‐1; expressed in transfected cells; host or cells: HEK293T
T1 sequence (Q92570 394-623 limits assumed): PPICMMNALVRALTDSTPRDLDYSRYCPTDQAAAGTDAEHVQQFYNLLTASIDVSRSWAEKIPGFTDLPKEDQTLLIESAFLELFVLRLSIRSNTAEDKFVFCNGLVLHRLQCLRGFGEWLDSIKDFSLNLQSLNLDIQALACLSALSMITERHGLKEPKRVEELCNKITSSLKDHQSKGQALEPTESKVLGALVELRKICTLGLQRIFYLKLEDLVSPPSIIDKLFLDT
Method: The screening assay was based on the Gal4 hybrid system[13] and employed a chimeric receptor composed of the human NOR‐1 LBD and the Gal4 DNA binding domain from yeast. Firefly luciferase under the control of five tandem repeats of the Gal4 response element served as reporter gene and constitutively expressed renilla luciferase was used for normalization and toxicity monitoring. Control experiments were conducted with the ligand‐independent transcriptional inducer Gal4‐VP16[14, 15] (replacing Gal4‐NOR‐1) to exclude non‐specific effects.
Hybrid reporter gene assays. The reporter gene assay was performed as reported previously[25] in HEK293T cells in 96‐well format using pFR‐Luc (Stratagene, La Jolla, CA, USA; reporter), pRL‐SV40 (Promega, Madison, WI, USA; control) and the Gal4‐NOR‐1 fusion receptor plasmid pFA‐CMV‐hNOR‐1‐LBD coding for the hinge region and LBD of the canonical isoform of NOR‐1 or pECE‐SV40‐Gal4‐VP16[15] […] In the primary screening, the core set of the Prestwick Drug Fragments Library was tested at 100 μM in two biologically independent repeats. All other samples were tested in duplicates in at least three biologically independent repeats. Luminescence was measured with a Spark 10 M luminometer (Tecan Group AG, Mannedorf, Switzerland), firefly luciferase data were divided by Renilla luciferase data and multiplied by 1000 to obtain relative light units (RLU). Fold activation was obtained by dividing the mean RLU of a test compound at a respective concentration by the mean RLU of untreated control. Dose‐response curves were fitted with the equation “[Agonist]/[Inhibitor] vs. response (three parameters)” in GraphPad Prism (version 7.00, GraphPad Software, La Jolla, CA, USA).

Gal4‐VP16 = target: T2, Gal4‐VP16 (Saccharomyces cerevisiae, UniProt P04386); assay: Gal4‐VP16 control reporter gene assay in HEK293T cells; format: cell-based; settings: 100 μM
T2 construct: host or cells: HEK293T
Source text: To rapidly probe druggability of NOR‐1 and identify potential ligand scaffolds, we have established a robust reporter gene assay to monitor NOR‐1 activity and screened a medium size fragment library for NOR‐1 modulation. The screening assay was based on the Gal4 hybrid system[13] and employed a chimeric receptor composed of the human NOR‐1 LBD and the Gal4 DNA binding domain from yeast. Firefly luciferase under the control of five tandem repeats of the Gal4 response element served as reporter gene and constitutively expressed renilla luciferase was used for normalization and toxicity monitoring. Control experiments were conducted with the ligand‐independent transcriptional inducer Gal4‐VP16[14, 15] (replacing Gal4‐NOR‐1) to exclude non‐specific effects. The commercially available fragment screening library (core set of the Prestwick drug fragments library) comprised 480 compounds with favorable fragment properties (Figure 1a) and offered high structural diversity as illustrated by low average pairwise Jaccard‐Tanimoto similarity computed on Morgan fingerprints[16] (median 0.13; Figure 1b) and by a total of 77 unique Murcko scaffolds.[17] […]
Hybrid reporter gene assays. […] Luminescence was measured with a Spark 10 M luminometer (Tecan Group AG, Mannedorf, Switzerland), firefly luciferase data were divided by Renilla luciferase data and multiplied by 1000 to obtain relative light units (RLU). […]

[2] = system: MYC mRNA expression in HeLa cells; format: cell-based; settings: 16 h, 1 at 100 and 300 μM, 19 at 10 and 30 μM, GAPDH as reference gene, n=4
Source text: The following primers were used: GAPDH: fw: [NT].

[3] = target: T3, interaction of NOR‐1 with SMRT (Homo sapiens, UniProt Q92570); assay: Reporter gene assay for NOR‐1 interaction with SMRT in HEK293T cells; format: cell-based; settings: n=3, read-out: IC50, antagonism of NOR‐1 interaction with SMRT
T3 construct: coding for the hinge region and LBD of the canonical isoform of NOR‐1; expressed in transfected cells; host or cells: HEK293T
T3 sequence (Q92570 394-623 limits assumed): T1 sequence (Q92570 394-623 limits assumed)
Method: (§1) Reporter gene assays for NOR‐1 interactions with NCoR1 and SMRT. The interaction of NOR‐1 with NCoR1 and SMRT was studied in reporter gene assays in HEK293T cells using pFR‐Luc, pRL‐SV40 and pFA‐CMV‐hNOR‐1‐LBD in combination with either pFTI‐CMV‐NCoR1 or pFTI‐CMV‐SMRT, which code for fusion proteins composed of the transcriptional inducer VP16 and fragments of the nuclear receptor co‐regulators NCoR1 or SMRT comprising one interaction motif.[29] […] After 24 h, the medium was changed to Opti‐MEM without supplements and the cells were transiently transfected with above‐described plasmids using Lipofectamine LTX reagent (Invitrogen). […] After 16 h incubation, cells were assayed for luciferase activity using the Dual‐Glo Luciferase Assay System (Promega) and luminescence was measured with a Spark 10 M luminometer (Tecan Group Ltd). Each sample was tested in duplicates in three independent experiments. Firefly luciferase data were divided by renilla luciferase data to obtain relative light units (RLU) and RLU of each test sample were normalized to the negative control (0.1 % DMSO).

[4] = target: T4, interaction of NOR‐1 with NCoR1 (Homo sapiens, UniProt Q92570); assay: Reporter gene assay for NOR‐1 interaction with NCoR1 in HEK293T cells; format: cell-based; settings: n=3, read-out: IC50, antagonism of NOR‐1 interaction with NCoR1
T4 construct: coding for the hinge region and LBD of the canonical isoform of NOR‐1; expressed in transfected cells; host or cells: HEK293T
T4 sequence (Q92570 394-623 limits assumed): T1 sequence (Q92570 394-623 limits assumed)
Method: as §1

T2 sequence (P04386 1-147, added parts left off): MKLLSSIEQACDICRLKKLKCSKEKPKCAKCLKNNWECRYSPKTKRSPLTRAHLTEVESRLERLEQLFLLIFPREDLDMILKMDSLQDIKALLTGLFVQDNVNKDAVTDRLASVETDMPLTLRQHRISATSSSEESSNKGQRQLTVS

SMILES: Sc1ncnc2nc[nH]c12 [6‐mercaptopurine]
- binding to the NOR‐1 ligand binding domain (LBD) (NOR‐1): does not bind
- effect on NOR‐1 activity (NOR‐1; requires the N‐terminal AF‐1 of NOR‐1): enhanced NOR‐1 activity

SMILES: COC(=O)c1c[nH]c2ccccc12 [compound 1]
- type of NOR‐1 modulation [1]: inverse agonist
- IC50 ([1]; Gal4‐NOR‐1, HEK293T cells, n=4): 47 ± 8 µM
- remaining NOR‐1 activity ([1]; n=4): 47±6%
- effect on Gal4‐VP16 induced reporter activity (Gal4‐VP16): no suppression
- effect on MYC expression [2]: induced MYC expression

SMILES: CC(=O)N1CCN(c2ccc(O)cc2)CC1 [compound 2]
- type of NOR‐1 modulation [1]: inverse agonist
- IC50 ([1]; Gal4‐NOR‐1, HEK293T cells, n=4): 73 µM
- remaining NOR‐1 activity ([1]; n=4): 64±7%
- effect on Gal4‐VP16 induced reporter activity (Gal4‐VP16): no suppression

SMILES: O=C(O)CCc1ccc(Cl)cc1 [compound 3]
- type of NOR‐1 modulation [1]: agonist
- EC50 ([1]; Gal4‐NOR‐1, HEK293T cells, n=4, read-out: EC50 (NOR‐1), agonism): 44 ± 6 µM
- max. activation of NOR‐1 ([1]; Gal4‐NOR‐1, n=4): 132±4%
- effect of added inverse agonist 1 on the EC50 value of 3 (competition experiment) ([1]; fixed concentration of 1 (100 μM), n=3): did not affect the EC50 value

SMILES: Oc1ccc(N2CCNCC2)cc1 [compound 4]
- activity on NOR‐1 [1]: inactive (100 μM)

SMILES: CC(=O)N1CCN(c2ccccc2)CC1 [compound 5]
- NOR‐1 activity ([1]; n=4): 93±1 % NOR‐1 activity (100 μM)

SMILES: Clc1ccc(N2CCNCC2)cc1 [compound 6, 4‐chlorophenylpiperazine]
- type of NOR‐1 modulation [1]: weak agonists
- NOR‐1 activity ([1]; n=4): 120±6 % NOR‐1 activity (100 μM)

SMILES: Nc1ccc(N2CCNCC2)cc1 [compound 8, 4‐aminophenylpiperazine]
- type of NOR‐1 modulation [1]: weak agonists
- NOR‐1 activity ([1]; n=4): 124±2 % NOR‐1 activity (100 μM)

SMILES: COc1ccc(N2CCNCC2)cc1 [compound 9, 4‐Methoxyphenylpiperazine]
- activity on NOR‐1 [1]: inactive (100 μM)

SMILES: CN1CCN(c2ccc(N)cc2)CC1 [compound 10]
- activity on NOR‐1 [1]: inactive (100 μM)

SMILES: COC(=O)c1cn(-c2ccccc2)c2ccccc12 [compound 11]
- activity on NOR‐1 [1]: inactive

SMILES: COC(=O)c1c(Cl)[nH]c2ccccc12 [compound 12]
- IC50 ([1]; Gal4‐NOR‐1, HEK293T cells, n=4): > 100 µM

SMILES: COC(=O)c1c[nH]c2cccc(Cl)c12 [compound 13]
- IC50 ([1]; Gal4‐NOR‐1, HEK293T cells, n=4): > 100 µM

SMILES: COC(=O)c1c[nH]c2ccc(Cl)cc12 [compound 14]
- IC50 ([1]; Gal4‐NOR‐1, HEK293T cells, n=4): 14 ± 2 µM
- remaining NOR‐1 activity ([1]; n=4): 12±4%
- improvement in inverse NOR‐1 agonist potency ([1]; versus lead 1): 3.5 fold

SMILES: COC(=O)c1c[nH]c2cc(Cl)ccc12 [compound 15]
- IC50 ([1]; Gal4‐NOR‐1, HEK293T cells, n=4): > 100 µM

SMILES: COC(=O)c1c[nH]c2c(Cl)cccc12 [compound 16]
- IC50 ([1]; Gal4‐NOR‐1, HEK293T cells, n=4): > 100 µM

SMILES: COC(=O)c1c[nH]c2ccc(C)cc12 [compound 17]
- IC50 ([1]; Gal4‐NOR‐1, HEK293T cells, n=4): 35 ± 8 µM
- remaining NOR‐1 activity ([1]; n=4): 2±7%

SMILES: COC(=O)c1c[nH]c2ccc(OC)cc12 [compound 18]
- IC50 ([1]; Gal4‐NOR‐1, HEK293T cells, n=4): 43 ± 5 µM
- remaining NOR‐1 activity ([1]; n=4): 13±4%

SMILES: COC(=O)c1c[nH]c2ccc(Br)cc12 [compound 19, Methyl 5‐bromoindole‐3‐carboxylate]
- IC50 [3]: 9 ± 2 µM
- IC50 [4]: 12 ± 3 µM
- IC50 ([1]; Gal4‐NOR‐1, HEK293T cells, n=4): 8 ± 1 µM
- remaining NOR‐1 activity ([1]; n=4): 7±3%
- effect on MYC expression [2]: induced MYC expression

SMILES: COC(=O)c1c[nH]c2ccc(-c3ccccc3)cc12 [compound 20]
- IC50 ([1]; Gal4‐NOR‐1, HEK293T cells, n=4): 4 ± 2 µM
- remaining NOR‐1 activity ([1]; n=4): 49±5%

SMILES: CCCCC[C@H](O)/C=C/[C@H]1C=CC(=O)[C@@H]1C/C=C\CCCC(=O)O [prostaglandin A2]
- effect on NOR‐1 activity (NOR‐1; through direct interaction with its LBD): weakly activates NOR‐1
